Our source for the IC50 values is patent publication US20220194945A1, “Imidazolopyridine Compounds For IRE1 Inhibition” (Optikira, LLC, priority 2019, published 2022).

Bounds are passed on as bounds.

One assay relates to XBP1 splicing. Kind of assay: Cellular XBP1 splicing assay. The assay is classed as cell-based. As to conditions: ARPE-19 cells stably expressing XBP1-nano-luciferase, thapsigargin 150 nM, 4 hour incubation. The procedure:
Cellular XBP1 Splicing Assay
ARPE-19 cells stably expressing XBP1 (a.a. 1-376) with nano-luciferase gene sequence linked so it is in frame when XBP1 is spliced, were cultured in F12 media, 10% FBS, 0.044% sodium bicarbonate, 150 μg/ml hygromycin B and seeded for assays at 5,000 cells in 384 well plates in culture media without hygromycin B and incubated at 37° C./5% CO2. After overnight incubation test compounds were added to the cell plate in a 10-point ½ log dilution series in duplicate (final DMSO concentration 0.117%). After further incubation of 30 minutes thapsigargin was added (final concentration 150 nM) and then another 4 hour incubation. A NanoLuc luciferase assay (Promega) was used according to the manufacturer's instructions to detect the luciferase and luminescence measured on a luminometer (EnVision, PerkinElmer). IC50 values calculated by fitting a sigmoidal curve to percent inhibition of control of compound concentration.
(§1) In vitro assay data are for the inhibition of RNase activity of IRE1α. Cellular assay (IC50 data) are for the XBP1 splicing assay.

A further assay has as its target T1, IRE1α (Homo sapiens, UniProt O75460).
T1 construct: purchased Signal Chem E31-11G
Kind of assay: Biochemical assay: inhibition of RNase activity of IRE1α. The following applies: IRE1α kinase (E31-11G, Signal Chem) 0.325 nM, substrate 100 nM, 30 min pre-incubation, read-out: In vitro assay IC50. The method, then:
Biochemical Assay: Inhibition of RNase activity of IRE1α
The RNase reactions were performed in 384 well black ProxiPlate-384 Plus plates (PERKIN Elmer) using 50 mM Tris assay buffer with 0.5 mM MgCl2, 10 mM KCl, 0.03% Tween, 2 mM DTT and 1% DMSO. Test compounds were prepared on the day of assay and dispensed using D300 digital dispenser as a 10-point ½ log dilution series in duplicate, normalized to a final DMSO concentration of […]. Test compounds were pre-incubated for 30 min at room temperature with IRE1α kinase (E31-11G from Signal Chem) in 2.5 μL of assay buffer. Then 2.5 μl of assay buffer containing substrate (5′ Alexa Fluor 647-rCrArU rGrUrC rCrGrC rArGrC rGrCrArUrG-Iowa Black RQ quencher 3′) added, giving a final concentration of enzyme of 0.325 nM and of substrate of 100 nM. After 20 minutes incubation at room temperature the reactions were stopped by added 5 μL of 5M urea, incubated at room temperature for 10 minutes and fluorescence measured on a plate reader (EnVision, PerkinElmer) IC50 values calculated by fitting a sigmoidal curve to percent inhibition of control versus compound concentration.
as §1

T1 sequence (O75460 468-977 limits assumed): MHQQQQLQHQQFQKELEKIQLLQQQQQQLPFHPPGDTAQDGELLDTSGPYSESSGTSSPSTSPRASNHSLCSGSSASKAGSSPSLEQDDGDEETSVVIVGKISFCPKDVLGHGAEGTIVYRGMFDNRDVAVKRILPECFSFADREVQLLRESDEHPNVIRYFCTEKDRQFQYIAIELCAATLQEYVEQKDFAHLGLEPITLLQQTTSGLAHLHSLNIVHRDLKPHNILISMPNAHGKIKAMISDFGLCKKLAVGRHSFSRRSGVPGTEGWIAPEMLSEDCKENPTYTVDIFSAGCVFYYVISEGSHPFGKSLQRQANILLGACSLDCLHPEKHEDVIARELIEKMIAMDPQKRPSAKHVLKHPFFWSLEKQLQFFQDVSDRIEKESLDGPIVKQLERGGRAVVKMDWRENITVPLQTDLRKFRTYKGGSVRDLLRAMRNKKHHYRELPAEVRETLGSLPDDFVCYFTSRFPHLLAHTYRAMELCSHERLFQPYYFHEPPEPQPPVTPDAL

As for `CC(C)c1nc(-c2ccc(NS(=O)(=O)c3ccccc3Cl)c(F)c2)c2c(N)ncc([C@H]3CC[C@@H](N)CC3)n12` [Example 1, N-(4-(8-Amino-5-((1s,4s)-4-aminocyclohexyl)-3-isopropylimidazo[1,5-a]pyrazin-1-yl)-2-fluorophenyl)-2-chlorobenzenesulfonamide], the IC50 – broadly, the point on the concentration scale where inhibition reaches its midpoint – is 510 nM in the assay on XBP1 splicing (Homo sapiens) and 290 nM at IRE1α.
In the same order, the values of `CC(C)c1nc(-c2ccc(NS(=O)(=O)c3ccccc3Cl)c(F)c2)c2c(N)ncc([C@H]3CC[C@H](N)CC3)n12` [Example 2, N-(4-(8-Amino-5-((1r,4r)-4-aminocyclohexyl)-3-isopropylimidazo[1,5-a]pyrazin-1-yl)-2-fluorophenyl)-2-chlorobenzenesulfonamide] are 15 nM and 15 nM.
Regarding `CC(C)c1nc(-c2ccc(NS(=O)(=O)c3ccccc3Cl)c(F)c2)c2c(N)ncc([C@H]3CC[C@@H](NC4COC4)CC3)n12` [Example 3, N-(4-(8-Amino-3-isopropyl-5-((1s,4s)-4-(oxetan-3-ylamino)cyclohexyl)imidazo[1,5-a]pyrazin-1-yl)-2-fluorophenyl)-2-chlorobenzenesulfonamide], the IC50 in the assay on XBP1 splicing (Homo sapiens) amounted to 300 nM; on IRE1α, 280 nM.
In the case of `CC(C)c1nc(-c2ccc(NS(=O)(=O)c3ccccc3Cl)c(F)c2)c2c(N)ncc([C@H]3CC[C@H](NC4COC4)CC3)n12` [Example 4, N-(4-(8-Amino-3-isopropyl-5-((1r,4r)-4-(oxetan-3-ylamino)cyclohexyl)imidazo[1,5-a]pyrazin-1-yl)-2-fluorophenyl)-2-chlorobenzene sulfonamide], the results for the 50% inhibitory concentration (IC50) in the assay on XBP1 splicing and on IRE1α were 5 nM and 6.4 nM, respectively.
Regarding `CC(C)c1nc(-c2ccc(NS(=O)(=O)c3ccccc3F)c(F)c2)c2c(N)ncc(C3=CCC(NC4COC4)CC3)n12` (stereo not drawn) [Example 6, N-(4-(8-Amino-3-isopropyl-5-(4-(oxetan-3-ylamino)cyclohex-1-en-1-yl)imidazo[1,5-a]pyrazin-1-yl)-2-fluorophenyl)-2-fluorobenzenesulfonamide], the 50% inhibitory concentration (IC50) in the assay with XBP1 splicing (Homo sapiens) is 98 nM; on IRE1α it was 150 nM.
Consider `CC(C)c1nc(-c2cc(F)c(NS(=O)(=O)c3ccccc3F)cc2F)c2c(N)ncc(C3=CCC(NC4COC4)CC3)n12` (stereo not drawn) [Example 7, N-(4-(8-Amino-3-isopropyl-5-(4-(oxetan-3-ylamino)cyclohex-1-en-1-yl)imidazo[1,5-a]pyrazin-1-yl)-2,5-difluorophenyl)-2-fluorobenzenesulfonamide], for which the IC50 was determined as 540 nM in the assay on XBP1 splicing (Homo sapiens) and 150 nM at IRE1α.
Turning to `CC(C)c1nc(-c2cc(F)c(NS(=O)(=O)c3ccccc3Cl)cc2F)c2c(N)ncc(C3=CCC(NC4COC4)CC3)n12` (stereo not drawn) [Example 8, N-(4-(8-Amino-3-isopropyl-5-(4-(oxetan-3-ylamino)cyclohex-1-en-1-yl)imidazo[1,5-a]pyrazin-1-yl)-2,5-difluorophenyl)-2-chlorobenzenesulfonamide], the results for the IC50 in the assay on XBP1 splicing (Homo sapiens) and at IRE1α were 170 nM and 110 nM, respectively.
The matching figures for `CC(C)c1nc(-c2ccc(NS(=O)(=O)c3ccccc3F)c(F)c2Cl)c2c(N)ncc(C3=CCC(NC4COC4)CC3)n12` (stereo not drawn) [Example 9, N-(4-(8-Amino-3-isopropyl-5-(4-(oxetan-3-ylamino)cyclohex-1-en-1-yl)imidazo[1,5-a]pyrazin-1-yl)-3-chloro-2-fluorophenyl)-2-fluorobenzenesulfonamide]: 760 nM and 69 nM.
For the compound `CC(C)c1nc(-c2cnc(NS(=O)(=O)c3ccccc3Cl)c(F)c2)c2c(N)ncc(C3=CCC(NC4COC4)CC3)n12` (stereo not drawn) [Example 10, N-(5-(8-Amino-3-isopropyl-5-(4-(oxetan-3-ylamino)cyclohex-1-en-1-yl)imidazo[1,5-a]pyrazin-1-yl)-3-fluoropyridin-2-yl)-2-chlorobenzenesulfonamide], the IC50 came out at 7700 nM with XBP1 splicing (Homo sapiens) and 61 nM at IRE1α.
The matching figures for `COc1ccc(S(=O)(=O)Nc2ccc(-c3nc(C(C)C)n4c(C5=CCC(NC6COC6)CC5)cnc(N)c34)cc2F)cn1` (stereo not drawn) [Example 11, N-(4-(8-Amino-3-isopropyl-5-(4-(oxetan-3-ylamino)cyclohex-1-en-1-yl)imidazo[1,5-a]pyrazin-1-yl)-2-fluorophenyl)-6-methoxypyridine-3-sulfonamide]: 3100 nM and 420 nM.
The matching figures for `CC(C)c1nc(-c2ccc(NS(=O)(=O)c3ccc(C(F)(F)F)nc3)c(F)c2)c2c(N)ncc(C3=CCC(NC4COC4)CC3)n12` (stereo not drawn) [Example 12, N-(4-(8-Amino-3-isopropyl-5-(4-(oxetan-3-ylamino)cyclohex-1-en-1-yl)imidazo[1,5-a]pyrazin-1-yl)-2-fluorophenyl)-6-(trifluoromethyl)pyridine-3-sulfonamide]: 6600 nM and 140 nM.
On to `Cc1cncc(S(=O)(=O)Nc2ccc(-c3nc(C(C)C)n4c(C5=CCC(NC6COC6)CC5)cnc(N)c34)cc2F)c1` (stereo not drawn) [Example 13, N-(4-(8-Amino-3-isopropyl-5-(4-(oxetan-3-ylamino)cyclohex-1-en-1-yl)imidazo[1,5-a]pyrazin-1-yl)-2-fluorophenyl)-5-methylpyridine-3-sulfonamide], for which the values for the IC50 with XBP1 splicing (Homo sapiens) and at IRE1α were 6400 nM and 360 nM, respectively.
For the compound `CC(C)c1nc(-c2ccc(NS(=O)(=O)c3ccccn3)c(F)c2)c2c(N)ncc(C3=CCC(NC4COC4)CC3)n12` (stereo not drawn) [Example 14, N-(4-(8-Amino-3-isopropyl-5-(4-(oxetan-3-ylamino)cyclohex-1-en-1-yl)imidazo[1,5-a]pyrazin-1-yl)-2-fluorophenyl)pyridine-2-sulfonamide], in the assay on XBP1 splicing (Homo sapiens), the IC50 was 5400 nM.
Consider `Cc1nc(S(=O)(=O)Nc2ccc(-c3nc(C(C)C)n4c(C5=CCC(NC6COC6)CC5)cnc(N)c34)cc2F)cs1` (stereo not drawn) [Example 15, N-(4-(8-Amino-3-isopropyl-5-(4-(oxetan-3-ylamino)cyclohex-1-en-1-yl)imidazo[1,5-a]pyrazin-1-yl)-2-fluorophenyl)-2-methylthiazole-4-sulfonamide], for which the concentration for half-maximal inhibition (IC50) in the assay with XBP1 splicing (Homo sapiens) amounted to 6500 nM; at IRE1α, 480 nM.
As to `CC(C)c1nc(-c2ccc(NS(=O)(=O)c3ccccc3Cl)c(F)c2)c2c(N)ncc(C3=CCC(NCCS(C)(=O)=O)CC3)n12` (stereo not drawn) [Example 16, N-(4-(8-Amino-3-isopropyl-5-(4-((2-(methylsulfonyl)ethyl)amino)cyclohex-1-en-1-yl)imidazo[1,5-a]pyrazin-1-yl)-2-fluorophenyl)-2-chlorobenzenesulfonamide], the half-inhibitory concentration (IC50) with XBP1 splicing (Homo sapiens) worked out at 110 nM; on IRE1α, 11 nM.
Turning to `Cc1nc(CS(=O)(=O)Nc2ccc(-c3nc(C(C)C)n4c(C5=CCC(N)CC5)cnc(N)c34)cc2F)cs1` (stereo not drawn) [Example 17, N-(4-(8-Amino-5-(4-aminocyclohex-1-en-1-yl)-3-isopropylimidazo[1,5-a]pyrazin-1-yl)-2-fluorophenyl)-1-(2-methylthiazol-4-yl)methanesulfonamide], the IC50 worked out at 7450 nM in the assay on XBP1 splicing (Homo sapiens) and 40 nM on IRE1α.
With `CC(C)c1nc(-c2ccc(NS(=O)(=O)c3ccccc3Cl)c(F)c2)c2c(N)ncc(C3=CCC(N4CCOCC4)CC3)n12` (stereo not drawn) [Example 18, N-(4-(8-Amino-3-isopropyl-5-(4-morpholinocyclohex-1-en-1-yl)imidazo[1,5-a]pyrazin-1-yl)-2-fluorophenyl)-2-chlorobenzenesulfonamide], the results for the 50% inhibitory concentration (IC50) in the assay with XBP1 splicing (Homo sapiens) and on IRE1α were 85 nM and 82 nM, respectively.
Regarding `COCCNC1CC=C(c2cnc(N)c3c(-c4ccc(NS(=O)(=O)c5ccccc5Cl)c(F)c4)nc(C(C)C)n23)CC1` (stereo not drawn) [Example 19, N-(4-(8-amino-3-isopropyl-5-(4-((2-methoxyethyl)amino)cyclohex-1-en-1-yl)imidazo[1,5-a]pyrazin-1-yl)-2-fluorophenyl)-2-chlorobenzenesulfonamide], the 50% inhibitory concentration (IC50) in the assay with XBP1 splicing (Homo sapiens) turned out to be 41 nM; on IRE1α, 44 nM.
As to `COc1nc(NS(=O)(=O)c2ccccc2Cl)ccc1-c1nc(C(C)C)n2c(C3=CCC(NC4COC4)CC3)cnc(N)c12` (stereo not drawn) [Example 20, N-(5-(8-amino-3-isopropyl-5-(4-(oxetan-3-ylamino)cyclohex-1-en-1-yl)imidazo[1,5-a]pyrazin-1-yl)-6-methoxypyridin-2-yl)-2-chlorobenzenesulfonamide], the figures for the IC50 in the assay on XBP1 splicing (Homo sapiens) and at IRE1α were over 10000 nM and over 1000 nM, respectively.
Turning to `Cc1nc(NS(=O)(=O)c2ccccc2Cl)ccc1-c1nc(C(C)C)n2c(C3=CCC(NC4COC4)CC3)cnc(N)c12` (stereo not drawn) [Example 21, N-(5-(8-amino-3-isopropyl-5-(4-(oxetan-3-ylamino)cyclohex-1-en-1-yl)imidazo[1,5-a]pyrazin-1-yl)-6-methylpyridin-2-yl)-2-chlorobenzenesulfonamide], the values for the IC50 in the assay with XBP1 splicing (Homo sapiens) and at IRE1α were 6100 nM and over 1000 nM, respectively.
